Assay results published in patent US9164053B2, “Electronic device for monitoring single molecule dynamics” (THE REGENTS OF THE UNIVERSITY OF CALIFORNIA, priority 2011, dated 2015).

Legend:
[1] = molecular target: T1, DNA polymerase 1 (Klenow Fragment, KF) (Escherichia coli, UniProt P00582, L790C); test: DNA polymerase I (Klenow fragment) single molecule device, nucleotide incorporation; assay type: biochemical, E. Coli; conditions: for average ΔI signal amplitude of incorporation, rank among four bases: FIG. 16C; for turnover rate / τ hi / τ lo: homopolymer DNA substrate with complementary nucleotide
T1 construct: a cysteine variant of the Klenow fragment of DNA polymerase 1 (KF); made in house
Experimental: The linker molecule is pyrene maleimide, with the pyrene functional group non-covalently attached to the SWNT sidewall. The single sensitizing molecule is a cysteine variant of the Klenow fragment of DNA polymerase 1 (KF) derived from E. Coli, which contains a single inserted cysteine at site 790 to provide a reactive thiol for bio-conjugation. The cysteine variant of KF was synthesized by methods known in the art. A 0.2 mg/mL solution of the cysteine variant of KF in activation buffer (10 mM Tris-HCl, 10 mM MgCl2, 50 mM NaCl, 1 mM DTT, pH 7.9) is prepared. Devices dilutely coated with the linker molecule pyrene maleimide non-covalently attached to the SWNT were soaked in the KF solution at room temperature for 60 minutes without agitation. Devices were then soaked in wash buffer (10 mM Tris-HCl, 10 mM MgCl2, 50 mM NaCl, 0.1 mM TCEP, 0.1% polysorbate 20, pH 7.9) for 30 minutes with shaking to remove unattached KF. Devices were finally rinsed under flowing activation buffer for 5 minutes and stored in this solution until used. These conditions lead to a density of approximately one KF molecule per micrometer of exposed SWNT.
In the preferred embodiment of Example 3, the sensitizing molecule is DNA polymerase 1 (Klenow Fragment, KF), and the chemical environment is a 100 nM solution of deoxyribonucleic acid (DNA) template and 100 μM deoxyribonucleotide triphosphate (dNTP) in buffer (50 mM NaCl, 10 mM MgCl2, 20 mM Tris, 10 mM dithiothreitol, pH 7.8). As before, high (Ihi) and low (Ilo) current values are observed during chemical activity and monitored in time. […] Transient pulses to a smaller current Ilo occur in the presence of chemical activity, which in this system requires the simultaneous presence of DNA template, dNTP to be incorporated, and Mg^2+ ions. Electrical transitions from Ihi to Ilo indicate the incorporation of one nucleotide into the template and can be statistically analyzed in the same ways as described for lysozyme.
FIGS. 15A-15D illustrate the signals produced by this embodiment when measured in buffer with different combinations of substrate and nucleotides. FIGS. 15A and 15B show the response of a KF sensitizing molecule measured with at least 10 nM polyC substrate and an excess of dGTP on 1 second and 0.1 second time scales, respectively. In the latter graph, the timing and amplitude of individual events are clearly resolved. Each event represents the addition of the nucleotide dGTP to the polyC substrate. FIGS. 15C and 15D show the same device measured with at least 10 nM polyA substrate and an excess of dTTP on identical time scales. On average, the individual events in FIG. 15D have shorter durations and higher amplitudes than the events in FIG. 15B. When either substrate or nucleotides are absent in these measurements, no transitions to Ilo are observed. Again, with reference to FIG. 15D, each event (dip in measured current) represents the addition of the nucleotide dTTP to the poly A substrate.
The device is capable of distinguishing all four types of base incorporation, and allows large numbers of individual events to be analyzed statistically. FIGS. 16A-16C illustrates typical types of analysis performed on data generated by a single KF protein in the presence of different combinations of DNA substrates and nucleotides. FIG. 16A plots the single-molecule probability distributions for the Ihi states of all four bases A, C, G, and T. Fits to each distribution are shown as solid lines and determine the mean value of τhi for each base pair. FIG. 16B plots the distributions for the four Ilo states and gives the values of τlo. The values of τhi are much longer than τlo and therefore they determine the overall turnover rate of the KF protein for a particular type of base. The data distinguish dGTP and dCTP as having shorter incorporation times and faster turnover rates than either dTTP or dATP. […]

lysozyme = molecular target: T2, lysozyme (Enterobacteria phage T4, UniProt P00720, C54T/C97A/S90C); assay type: biochemical
T2 construct: made in house
Experimental: The single sensitizing molecule is a cysteine variant of T4 lysozyme which contains a single substituted cysteine as the mutation S90C to provide a reactive thiol for bio-conjugation. […] A 54 μM solution of the cysteine variant of T4 lysozyme in phosphate buffer (20 mM Na2HPO4, pH 7) is prepared. Devices dilutely coated with the linker molecule pyrene maleimide non-covalently attached to the SWNT were soaked in the lysozyme solution at room temperature for 60 minutes without agitation. Devices were then soaked in wash buffer (5 mM KCl, 10 mM Na2HPO4, 0.05% polysorbate 20, pH 7) for 30 minutes with shaking to remove unattached lysozyme. Devices were finally rinsed under flowing de-ionized water for 5 minutes.

[2] = single molecule sensing device, lysozyme processing peptidoglycan (current fluctuations); assay type: biochemical
Experimental: The linker molecule is pyrene maleimide, with the pyrene functional group non-covalently attached to the SWNT sidewall. The single sensitizing molecule is a cysteine variant of T4 lysozyme which contains a single substituted cysteine as the mutation S90C to provide a reactive thiol for bio-conjugation. The cysteine variant of T4 lysozyme was synthesized by methods known in the art. A 54 μM solution of the cysteine variant of T4 lysozyme in phosphate buffer (20 mM Na2HPO4, pH 7) is prepared. Devices dilutely coated with the linker molecule pyrene maleimide non-covalently attached to the SWNT were soaked in the lysozyme solution at room temperature for 60 minutes without agitation. Devices were then soaked in wash buffer (5 mM KCl, 10 mM Na2HPO4, 0.05% polysorbate 20, pH 7) for 30 minutes with shaking to remove unattached lysozyme. Devices were finally rinsed under flowing de-ionized water for 5 minutes. These conditions lead to a density of approximately one T4 lysozyme molecule per micrometer of exposed SWNT.
The fully fabricated device is used by submerging the device in a gaseous or liquid environment. Temperature of the environment should be controlled and held constant and, in the case of liquids, so should the pH and electrochemical potential. An electrical bias is created and held constant between the source and the drain electrode. The current between the source, and the drain is measured over time and collected as control data points. The device is then exposed to a different chemical environment, and the levels of the current between the source and the drain is measured over time collected as experimental data points.
In the embodiment of Example 2, the sensitizing molecule was lysozyme, and the chemical environment is 25 μg/ml peptidoglycan substrate in PBS buffer. The high (Ihi) and the low current values (Ilo) after the device is exposed to the peptidoglycan are measured over time. The parameters of the relative difference ΔI=(Ihi−Ilo)/Ilo are statistically analyzed, and have been determined to be the most reliable way to analyze the conformational changes in the sensitizing molecule. […] Ihi, on the other hand, is substantially larger and is assigned to the mechanically-closed conformation of lysozyme around a bound peptidoglycan molecule. Electrical transitions from Ilo to Ihi indicate the hinge-like closure of lysozyme as it attempts to catalytically cleave a glycosidic bond of the peptidoglycan.
In the more preferred embodiment, oscillations in the electrical current between Ilo and Ihi occur with a broad distribution of stochastic durations that mirror the enzyme's activity. Sequences of ten or more oscillations can be categorized into one of two activity types, one slow and one fast. The slow oscillation corresponds to productive enzyme activity where the enzyme is successfully cleaving bonds of the peptidoglycan. […] The amplitude of the signal ΔI is nearly the same in both slow and fast oscillations and is measured to be nearly constant, which supports a conclusion that the same range of molecular motion is being measured for both types of activity. This concurs with data from FRET which has previously proven that the range of mechanical motion in lysozyme is the same for both types of activity.
FIG. 2A illustrates an extended sequence of current fluctuation over 30 seconds, with the mean value highlighted using the setup of Example 2. […] The fast oscillations occur on average 300 times per second. The slow oscillations occur on average 15 times per second. The exact rate of either oscillation varies from one conformation to another, so that long-duration measurements observe the conversion of the enzyme to different possible rates. In different minutes of measurement, the same protein can undergo slow oscillations varying from 10 to 80 times per second.
FIG. 4 summarizes the data with mean values of τlo and τhi. Another figure of merit for each parameter is the statistical variance. […]

T1 sequence (P00582 324-928 L790C): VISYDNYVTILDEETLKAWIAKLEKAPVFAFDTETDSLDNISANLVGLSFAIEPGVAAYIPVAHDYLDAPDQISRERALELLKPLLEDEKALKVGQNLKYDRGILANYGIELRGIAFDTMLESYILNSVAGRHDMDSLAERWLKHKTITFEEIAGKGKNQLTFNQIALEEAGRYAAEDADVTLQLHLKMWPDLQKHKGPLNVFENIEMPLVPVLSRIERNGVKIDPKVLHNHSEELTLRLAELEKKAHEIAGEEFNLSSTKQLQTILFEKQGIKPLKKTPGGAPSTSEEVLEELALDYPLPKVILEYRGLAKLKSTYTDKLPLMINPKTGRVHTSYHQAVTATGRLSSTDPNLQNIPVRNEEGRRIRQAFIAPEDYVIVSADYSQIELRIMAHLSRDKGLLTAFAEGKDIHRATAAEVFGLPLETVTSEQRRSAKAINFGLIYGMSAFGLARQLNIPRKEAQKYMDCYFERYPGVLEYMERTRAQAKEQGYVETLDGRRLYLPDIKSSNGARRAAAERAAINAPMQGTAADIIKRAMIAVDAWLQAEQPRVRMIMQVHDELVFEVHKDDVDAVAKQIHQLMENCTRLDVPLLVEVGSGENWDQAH

Molecule: Nc1nc2c(ncn2[C@H]2C[C@H](O)[C@@H](COP(=O)(O)OP(=O)(O)OP(=O)(O)O)O2)c(=O)[nH]1 [dGTP]
- average ΔI signal amplitude of incorporation, rank among four bases [1]: smallest
- turnover rate [1]: 28.5 ± 3.5 s⁻¹
- τ hi [1]: 38.0 ± 5.8 ms
- τ lo [1]: 0.33 ± 0.06 ms

Molecule: O=C(O)CCc1c[nH]c2ccccc12 [I3P, indole-3-propionic acid]
- pulse amplitude ΔI (lysozyme; 10 mM I3P): +20%
- pulse duration τhi (lysozyme; 10 mM I3P): < 1 ms
- interactions with inhibitor in electronic I(t) signals (lysozyme; weakly-interacting, non-covalent inhibitors): clearly observed

Molecule: Nc1ccn([C@H]2C[C@H](O)[C@@H](COP(=O)(O)OP(=O)(O)OP(=O)(O)O)O2)c(=O)n1 [dCTP]
- turnover rate [1]: 26.2 ± 4.4 s⁻¹
- τ hi [1]: 39.0 ± 5.6 ms
- τ lo [1]: 0.32 ± 0.07 ms

Molecule: Nc1ncnc2c1ncn2[C@H]1C[C@H](O)[C@@H](COP(=O)(O)OP(=O)(O)OP(=O)(O)O)O1 [dATP]
- average ΔI signal amplitude of incorporation, rank among four bases [1]: largest
- turnover rate [1]: 14.4 ± 2.9 s⁻¹
- τ hi [1]: 71.4 ± 14.3 ms
- τ lo [1]: 0.33 ± 0.08 ms

Molecule: Cc1cn([C@H]2C[C@H](O)[C@@H](COP(=O)(O)OP(=O)(O)OP(=O)(O)O)O2)c(=O)[nH]c1=O [dTTP]
- turnover rate [1]: 16.0 ± 2.9 s⁻¹
- τ hi [1]: 63.7 ± 11.4 ms
- τ lo [1]: 0.42 ± 0.09 ms

Molecule: lysozyme
- normalized variance rhi ([2]; Nonproductive (fast), pH 5): 0.48 ± 0.10
- normalized variance rlo ([2]; Nonproductive (fast), pH 5): 0.97 ± 0.13
- normalized variance rhi ([2]; Nonproductive (fast), pH 7): 0.43 ± 0.06
- normalized variance rlo ([2]; Nonproductive (fast), pH 7): 0.99 ± 0.09
- normalized variance rhi ([2]; Nonproductive (fast), pH 11): 0.61 ± 0.08
- normalized variance rlo ([2]; Nonproductive (fast), pH 11): 1.00 ± 0.10
- normalized variance rhi ([2]; Processing (slow), pH 5): 0.68 ± 0.15
- normalized variance rlo ([2]; Processing (slow), pH 5): 1.00 ± 0.18
- normalized variance rhi ([2]; Processing (slow), pH 7): 0.74 ± 0.12
- normalized variance rlo ([2]; Processing (slow), pH 7): 1.06 ± 0.15
- normalized variance rhi ([2]; Processing (slow), pH 11): 0.60 ± 0.15
- normalized variance rlo ([2]; Processing (slow), pH 11): 1.11 ± 0.23
- slow oscillations, average rate ([2]; catalytic processing, 25 μg/ml peptidoglycan in PBS): 15 times per second
- time spent processing ([2]; linear peptidoglycan substrate without crosslinks): 88%
- fast oscillations, average rate ([2]; nonproductive binding, 25 μg/ml peptidoglycan in PBS): 300 times per second
- time spent processing ([2]; peptidoglycan substrate containing crosslinks): 51%
